Several values for one entry are separate records, joined by “and”; a condition that tells them apart may be missing. Equal entries are not always repeated. ± gives the expanded uncertainty stated by the source.
Experiment: molar heat capacity at constant pressure
Details: 101.33 kPa, Crystal, PPMS instrument (Quantum Design)

O=P([O-])([O-])[O-].[Gd+3] [gadolinium orthophosphate]
Details | molar heat capacity at constant pressure
0.525 K | 7.722 ± 0.24 J/K/mol
0.536 K | 8.106 ± 0.26 J/K/mol
0.547 K | 8.475 ± 0.27 J/K/mol
0.558 K | 8.855 ± 0.29 J/K/mol
0.569 K | 9.277 ± 0.3 J/K/mol
0.58 K | 9.631 ± 0.31 J/K/mol
0.591 K | 10.11 ± 0.33 J/K/mol
0.602 K | 10.69 ± 0.35 J/K/mol
0.614 K | 11.24 ± 0.37 J/K/mol
0.625 K | 11.83 ± 0.4 J/K/mol
0.637 K | 12.57 ± 0.42 J/K/mol
0.648 K | 13.42 ± 0.45 J/K/mol
0.659 K | 14.37 ± 0.49 J/K/mol
0.67 K | 15.29 ± 0.52 J/K/mol
0.681 K | 16.55 ± 0.57 J/K/mol
0.693 K | 17.9 ± 0.62 J/K/mol
0.703 K | 19.56 ± 0.68 J/K/mol
0.715 K | 21.6 ± 0.76 J/K/mol
0.726 K | 24.07 ± 0.84 J/K/mol
0.73 K | 25.16 ± 0.88 J/K/mol
0.733 K | 26.31 ± 0.92 J/K/mol
0.737 K | 27.55 ± 0.97 J/K/mol
0.738 K | 27.92 ± 0.98 J/K/mol
0.742 K | 29.69 ± 1 J/K/mol
0.743 K | 29.92 ± 1.1 J/K/mol
0.745 K | 31.34 ± 1.1 J/K/mol
0.747 K | 31.86 ± 1.1 J/K/mol
0.75 K | 33.48 ± 1.2 J/K/mol
0.751 K | 34.37 ± 1.2 J/K/mol
0.752 K | 35.17 ± 1.3 J/K/mol
0.755 K | 37.19 ± 1.3 J/K/mol
0.756 K | 37.83 ± 1.4 J/K/mol
0.758 K | 40.08 ± 1.4 J/K/mol
0.76 K | 41.57 ± 1.5 J/K/mol
0.763 K | 44.62 ± 1.6 J/K/mol
0.764 K | 46.25 ± 1.7 J/K/mol
0.765 K | 47.54 ± 1.7 J/K/mol
0.768 K | 50.76 ± 1.8 J/K/mol
0.77 K | 52.55 ± 1.9 J/K/mol
0.772 K | 53.77 ± 1.9 J/K/mol
0.773 K | 54.78 ± 2 J/K/mol
0.776 K | 54.21 ± 2 J/K/mol
0.777 K | 51.7 ± 1.9 J/K/mol and 54.18 ± 2 J/K/mol
0.782 K | 37.73 ± 1.4 J/K/mol
0.783 K | 33.58 ± 1.2 J/K/mol
0.784 K | 31.28 ± 1.1 J/K/mol
0.786 K | 23.82 ± 0.85 J/K/mol
0.79 K | 19.56 ± 0.69 J/K/mol
0.791 K | 19.09 ± 0.67 J/K/mol
0.794 K | 17.74 ± 0.62 J/K/mol
0.796 K | 16.84 ± 0.59 J/K/mol
0.797 K | 16.39 ± 0.57 J/K/mol
0.799 K | 15.8 ± 0.54 J/K/mol
0.8 K | 15.62 ± 0.54 J/K/mol
0.804 K | 14.83 ± 0.51 J/K/mol
0.806 K | 14.48 ± 0.49 J/K/mol
0.816 K | 13.11 ± 0.45 J/K/mol
0.843 K | 11.32 ± 0.35 J/K/mol
0.867 K | 10.3 ± 0.32 J/K/mol
0.872 K | 10.13 ± 0.32 J/K/mol
0.882 K | 9.827 ± 0.31 J/K/mol
0.89 K | 9.584 ± 0.3 J/K/mol
0.892 K | 9.579 ± 0.3 J/K/mol
0.902 K | 9.269 ± 0.29 J/K/mol
0.912 K | 9.065 ± 0.29 J/K/mol
0.914 K | 9.009 ± 0.28 J/K/mol
0.922 K | 8.871 ± 0.28 J/K/mol
0.933 K | 8.692 ± 0.27 J/K/mol
0.939 K | 8.538 ± 0.27 J/K/mol
0.942 K | 8.499 ± 0.27 J/K/mol
0.952 K | 8.332 ± 0.26 J/K/mol
0.962 K | 8.221 ± 0.26 J/K/mol
0.963 K | 8.167 ± 0.26 J/K/mol
0.973 K | 8.056 ± 0.25 J/K/mol
0.983 K | 7.933 ± 0.25 J/K/mol
0.986 K | 7.919 ± 0.25 J/K/mol
0.993 K | 7.852 ± 0.25 J/K/mol
1.003 K | 7.778 ± 0.25 J/K/mol
1.01 K | 7.554 ± 0.24 J/K/mol
1.059 K | 6.868 ± 0.22 J/K/mol
1.141 K | 6.058 ± 0.2 J/K/mol
1.22 K | 5.523 ± 0.18 J/K/mol
1.301 K | 4.919 ± 0.16 J/K/mol
1.381 K | 4.476 ± 0.15 J/K/mol
1.461 K | 4.061 ± 0.14 J/K/mol
1.544 K | 3.711 ± 0.14 J/K/mol
1.619 K | 3.447 ± 0.18 J/K/mol
1.699 K | 3.178 ± 0.42 J/K/mol
1.78 K | 2.944 ± 0.14 J/K/mol
1.841 K | 2.578 ± 0.12 J/K/mol
1.86 K | 2.751 ± 0.12 J/K/mol
1.94 K | 2.578 ± 0.1 J/K/mol
2.02 K | 2.372 ± 0.092 J/K/mol
2.234 K | 1.874 ± 0.072 J/K/mol
2.648 K | 1.377 ± 0.049 J/K/mol
3.055 K | 1.063 ± 0.037 J/K/mol
3.464 K | 0.8457 ± 0.027 J/K/mol
3.872 K | 0.6931 ± 0.022 J/K/mol
4.291 K | 0.57 ± 0.018 J/K/mol
4.675 K | 0.4911 ± 0.015 J/K/mol
5.081 K | 0.4292 ± 0.013 J/K/mol
5.499 K | 0.3415 ± 0.01 J/K/mol
5.896 K | 0.3389 ± 0.01 J/K/mol
6.3 K | 0.3079 ± 0.0093 J/K/mol
6.728 K | 0.2809 ± 0.0085 J/K/mol
7.126 K | 0.2659 ± 0.008 J/K/mol
7.523 K | 0.2545 ± 0.0076 J/K/mol
7.936 K | 0.2483 ± 0.0075 J/K/mol
8.343 K | 0.2454 ± 0.0074 J/K/mol
8.747 K | 0.246 ± 0.0074 J/K/mol
8.971 K | 0.2476 ± 0.0074 J/K/mol
9.151 K | 0.2497 ± 0.0075 J/K/mol
9.554 K | 0.2573 ± 0.0077 J/K/mol
9.964 K | 0.2698 ± 0.0081 J/K/mol
9.976 K | 0.2696 ± 0.0081 J/K/mol
10.96 K | 0.3114 ± 0.0094 J/K/mol
11.94 K | 0.3719 ± 0.011 J/K/mol
12.94 K | 0.4546 ± 0.014 J/K/mol
13.93 K | 0.5628 ± 0.017 J/K/mol
14.93 K | 0.6954 ± 0.021 J/K/mol
15.93 K | 0.8555 ± 0.026 J/K/mol
16.93 K | 1.039 ± 0.031 J/K/mol
17.94 K | 1.247 ± 0.038 J/K/mol
18.95 K | 1.476 ± 0.045 J/K/mol
19.95 K | 1.752 ± 0.053 J/K/mol
20.95 K | 2.036 ± 0.061 J/K/mol
21.96 K | 2.353 ± 0.071 J/K/mol
22.97 K | 2.692 ± 0.081 J/K/mol
23.97 K | 3.053 ± 0.092 J/K/mol
24.98 K | 3.44 ± 0.1 J/K/mol
25.98 K | 3.849 ± 0.12 J/K/mol
26.99 K | 4.279 ± 0.13 J/K/mol
28 K | 4.714 ± 0.14 J/K/mol
29 K | 5.169 ± 0.16 J/K/mol
30.01 K | 5.631 ± 0.17 J/K/mol
32 K | 6.652 ± 0.2 J/K/mol
34 K | 7.603 ± 0.23 J/K/mol
36.02 K | 8.663 ± 0.26 J/K/mol
38.05 K | 9.792 ± 0.29 J/K/mol
40.06 K | 10.89 ± 0.33 J/K/mol
42.08 K | 12.02 ± 0.36 J/K/mol
44.09 K | 13.17 ± 0.4 J/K/mol
46.11 K | 14.35 ± 0.43 J/K/mol
48.12 K | 15.55 ± 0.47 J/K/mol
50.14 K | 16.75 ± 0.5 J/K/mol
53.15 K | 18.58 ± 0.56 J/K/mol
56.16 K | 20.4 ± 0.61 J/K/mol
59.19 K | 22.22 ± 0.67 J/K/mol
62.22 K | 24.02 ± 0.72 J/K/mol
65.24 K | 25.8 ± 0.77 J/K/mol
68.26 K | 27.54 ± 0.83 J/K/mol
71.29 K | 29.29 ± 0.88 J/K/mol
74.3 K | 31.02 ± 0.93 J/K/mol
77.33 K | 32.72 ± 0.98 J/K/mol
80.35 K | 34.4 ± 1 J/K/mol
85.39 K | 37.09 ± 1.1 J/K/mol
92.14 K | 40.56 ± 1.2 J/K/mol
98.9 K | 43.87 ± 1.3 J/K/mol
105.7 K | 47.02 ± 1.4 J/K/mol
112.4 K | 50.06 ± 1.5 J/K/mol
119.2 K | 53.01 ± 1.6 J/K/mol
126 K | 55.84 ± 1.7 J/K/mol
132.7 K | 58.53 ± 1.8 J/K/mol
139.5 K | 61.13 ± 1.8 J/K/mol
146.3 K | 63.67 ± 1.9 J/K/mol
153 K | 65.98 ± 2 J/K/mol
159.8 K | 68.28 ± 2 J/K/mol
166.6 K | 70.53 ± 2.1 J/K/mol
173.3 K | 72.7 ± 2.2 J/K/mol
180.1 K | 74.71 ± 2.2 J/K/mol
186.8 K | 76.76 ± 2.3 J/K/mol
193.6 K | 78.76 ± 2.4 J/K/mol
200.4 K | 80.59 ± 2.4 J/K/mol
207.1 K | 82.32 ± 2.5 J/K/mol
213.8 K | 84.09 ± 2.5 J/K/mol
220.6 K | 85.76 ± 2.6 J/K/mol
227.4 K | 87.27 ± 2.6 J/K/mol
234.1 K | 88.95 ± 2.7 J/K/mol
240.9 K | 90.53 ± 2.7 J/K/mol
247.7 K | 92.18 ± 2.8 J/K/mol
254.4 K | 93.53 ± 2.8 J/K/mol
261.1 K | 94.92 ± 2.8 J/K/mol
267.9 K | 96.45 ± 2.9 J/K/mol
274.6 K | 97.84 ± 2.9 J/K/mol
281.3 K | 98.99 ± 3 J/K/mol
288.1 K | 100.29 ± 3 J/K/mol
294.8 K | 101.42 ± 3 J/K/mol
301.6 K | 102.56 ± 3.1 J/K/mol
